Data set [1] in a line: Analysis of Drug Levels and Liver Accumulation in Rats. The conditions noted are these: fasted rats, 10 mgs/kg i.v., one hour post injection; for concentration at 1 h: Sprague-Dawley, rat, iv, read-out: Plasma Conc.; for Plasma Conc. / concentration at 1 h: plasma. It is filed as in vivo, rat. The procedure:
The compound was dissolved in water and the solution adjusted to neutrality with NaOH. One hour post injection rats were anesthetized with halothane and a liver biopsy (approx. 1 g) was taken as well as a blood sample (2 ml) from the posterior vena cava. A heparin flushed syringe and needle were used for blood collection. The liver sample was immediately homogenized in ice-cold 10% perchloric acid (3 ml), centrifuged, and the supernatant neutralized with ⅓rd volume of 3 M KOH/3 M KHCO3. […] Plasma was prepared from the blood sample by centrifugation and extracted by addition of methanol to 60% (v/v). The methanolic extract was clarified by centrifugation and filtration and then analyzed by HPLC as described above.

Another data set deals with Fasted Rats. The experiment in a line: Blood Glucose Lowering Following Intravenous Administration to Fasted Rats. The data set is classed as in vivo, rat. The conditions noted are these: 18 h fasted Sprague Dawley rats, 1 hour, relative to saline-treated controls. As for the experimental part: Inhibitors were disolved in water and the solution adjusted to neutrality with NaOH. Blood samples were obtained from the tail vein of conscious animals just prior to injection and after 1 hour. Blood glucose was measured using a HemoCue Inc. glucose analyzer according to the instructions of the manufacturer.

A short description of data set [2]: Estimation of the Oral Bioavailability of Phosphonic Acids and their Prodrugs. The data set is classed as in vivo, rat. The conditions noted are these: fasted rats, oral 10–50 mg/kg, 24 h urinary recovery of phosphonic acid, oral vs intravenous. The procedure: Phosphonic acids were dissolved in water, and the solution adjusted to neutrality with sodium hydroxide. Prodrugs were dissolved in 10% ethanol/90% polyethlene glycol (mw 400). Compound was administered by oral gavage to 18-hour fasted Sprague-Dawley rats (220–250 g) at doses ranging from 10–50 mg/kg. The rats were subsequently placed in metabolic cages and urine was collected for 24 hours. The quantity of phosphonic acid excreted into urine was determined by HPLC analysis as described in Example G. In a separate study, urinary recovery was determined following intravenous (tail vein) administration of compound (in the case of the prodrugs, the appropriate parent phosphonic acid was administered i.v.).

Data set [3] relates to Gluconeogenesis in Rat Hepatocytes. The data set can be described thus: Inhibition of Gluconeogenesis in Rat Hepatocytes. It is filed as cell-based. The note with it: 10 mM lactate, 1 mM pyruvate, 1 hour incubation, read-out: IC50 Glucose Production. As for the experimental part: Hepatocytes were prepared from overnight fasted Sprague-Dawley rats (250–300 g) according to the procedure of Berry and Friend (Berry, M. N., Friend, D. S., 1969, J. Cell. Biol. 43, 506–520) as modified by Groen (Groen, A. K., Sips, H. J., Vervoorn, R. C., Tager, J. M. , 1982, Eur. J. Biochem. 122, 87–93). Hepatocytes (75 mg wet weight/ml) were incubated in 1 ml Krebs-bicarbonate buffer containing 10 mM Lactate, 1 mM pyruvate, 1 mg/ml BSA, and test compound concentrations from 1 to 500 μM. Incubations were carried out in a 95% oxygen, 5% carbon dioxide atmosphere in closed, 50-ml Falcon tubes submerged in a rapidly shaking water bath (37° C.). After 1 hour, an aliquot (0.25 ml) was removed, transferred to an Eppendorf tube and centrifuged. 50 μl of supernatant was then assayed for glucose content using a Sigma Glucose Oxidase kit as per the manufacturer's instructions.

Data set [4] is described as follows: Oral Absorption Determinations of Prodrugs in the Rat. The note with it: normal fed rats.
Another data set has as its system Fasted Rat. The experiment in a line: Glucose Lowering Following Oral Administration to the Fasted Rat. The data set is classed as in vivo. The note with it: oral gavage, 18-hour fasted rats, relative to saline controls. As for the experimental part:
Compounds were administered by oral gavage to 18-hour fasted, Sprague Dawley rats (250–300 g, n =3/4/group). Phosphonic acids were prepared in deionized water, and the solution adjusted to neutrality with solidum hydroxide. Prodrugs were dissolved in polyethylene glycol (mw 400). […] The table below indicates the maximum glucose lowering achieved relative to control animals dosed with saline.

[5] abbreviates: Rattus norvegicus, iv, 10 mg/kg i.v.

Counter-ions that a name gives are not always drawn. Like-named read-outs stand apart in the source and are kept apart here.

On to `CCc1sc(N)nc1-c1ccc(P(=O)(O)O)o1` [Compound 3.21, 2-Amino-5-ethyl-4-[2-(5-phosphono)furanyl]thiazole], for which the “Plasma Conc.” value in data set [1] was determined as 25 ± 1 µM.
For the compound `CCOC(=O)c1sc(N)nc1-c1ccc(P(=O)(O)O)o1` [Compound 3.25, 2-Amino-5-ethoxycarbonyl-4-[2-(5-phosphono)furanyl]thiazole], the inhibition in vivo at 10 mg/kg in the data set on Fasted Rats (setting [5]) came to 76%.
In the case of `CC(C)Cc1sc(Br)nc1-c1ccc(P(=O)(O)O)o1` [Compound 5.1, 2-bromo-5-isobutyl-4-[2-(5-phosphono)furanyl]thiazole], in data set [1], the “Liver Conc.” value amounted to 6.7 ± 0.7 nmol/g and the “Plasma Conc.” value amounted to 100 ± 5.7 µM.
In the case of `CC(C)Cc1sc(N)nc1-c1ccc(P(=O)(OCOC(=O)C(C)(C)C)OCOC(=O)C(C)(C)C)o1` [Compound 20.4, 2-Amino-5-isobutyl-4-{2-[5-(dipivaloyloxymethyl)phosphono]furanyl}thiazole], the “% Oral bioavailability” value in data set [2] is 11%.
`CC(C)Cc1sc(N)nc1-c1ccc(P2(=O)OCCC(c3ccncc3)O2)o1` (stereo not drawn) [Compound 19.18, 2-Amino-5-isobutyl-4-[2-{5-[1-(4-pyridyl)-propan-1,3-yl]phosphonol}furanyl)-thiazole]: the IC50 in data set [3] amounted to 10 µM.
As to `CCOC(=O)CNP(=O)(Oc1ccccc1)c1ccc(-c2nc(N)sc2CC(C)C)o1` (stereo not drawn) [Compound 31.8, 2-amino-5-isobutyl-4-{2-[5-(O-phenyl-N-ethoxycarbonylmethyl)phosphonamido]furanyl}thiazole], the “% Oral bioavailability” value in data set [2] is 14%. The IC50 in data set [3] was found to be 3 µM.
As to `Cc1nc(-c2ccc(P3(=O)OCCC(c4ccncc4)O3)o2)c(CC(C)C)s1` (stereo not drawn) [Compound 19.17, 5-Isobutyl-2-methyl-4-{2-[5-(1-(4-pyridyl)-1,3-propyl)phosphono]furanyl}-thiazole], the “% Oral bioavailability” value in data set [2] is listed as 16.2%.
`Nc1nc(C(=O)OCP(=O)(O)O)c(Br)s1` [Compound 18.2, 2-amino-5-bromo-4-phosphonomethoxycarbonylthiazole] showed an inhibition in vivo at 10 mg/kg in the data set on Fasted Rats (setting [5]) of 80%.
For the compound “2-Methyl-5-isobutyl-4-{2-[5-bis(thiobenzoylmethyl)phosphono]furanyl}thiazole [Compound 19.9]”, in data set [2], the “% Oral bioavailability” value is on record as 18.5%.
For the compound `CCCSc1oc(N)nc1-c1ccc(P(=O)(O)O)o1` [Compound 10.43, 2-Amino-5-propylthio-4-[2-(5-phosphono)furanyl]oxazole], in the data set with Fasted Rats (setting [5]), the inhibition in vivo at 10 mg/kg stood at 61%.
In the data set with Fasted Rats (setting [5]), `CCc1c(SC#N)cc(OCP(=O)(O)O)c2nc(N)sc12` [Compound 41.1, 2-amino-7-ethyl-6-thiocyano-4-phosphonomethoxybenzothiazole] gave an inhibition in vivo at 10 mg/kg of 80%.
`CCCSc1sc(N)nc1-c1ccc(P(=O)(O)O)o1` [Compound 3.58, 2-Amino-5-propylthio-4-[2-(5-phosphono)furanyl]thiazole hydrobromide] displayed an inhibition in vivo at 10 mg/kg in the data set on Fasted Rats (setting [5]) of 82%. Further, the IC50 in data set [3] (Hepatocyte) came to 1.2 µM.
Regarding `CC(C)Cc1sc(N)nc1-c1ccc(P2(=O)OCCC(c3ccc(F)c(Br)c3)O2)o1` (stereo not drawn) [Compound 19.42, 2-Amino-5-isobutyl-4-{2-[5-(1-(4-fluoro-3-bromophenyl)-1,3-propyl)phosphono]furanyl}thiazole], the “% Oral bioavailability” value in data set [2] is listed as 10%. Also, the “% excreted i.p.” value in data set [4] (30 mg/kg intraperitoneal, parent compound 3.1 in 24 h urine) stood at 15.4%. Further, in data set [4] (30 mg/kg oral gavage, parent compound 3.1 in 24 h urine), the “% excreted p.o.” value was 8.1%. The “% absorption” value in data set [4] (30 mg/kg, urinary excretion oral vs intraperitoneal) is given as 52%. Moreover, the “% Glucose Lowering (maximum)” value in the data set on Fasted Rat (dose 30 mg/kg, time point 3 h) came to 26%.
In the case of `Cc1nc(-c2ccc(P(=O)(OCOC(=O)C(C)(C)C)OCOC(=O)C(C)(C)C)o2)c(CC(C)C)s1` [Compound 20.3, 2-Methyl-5-isobutyl-4-{2-[5-(dipivaloyloxymethyl)phosphono]furanyl}thiazole], the “% Oral bioavailability” value in data set [2] is listed as 17.5%.
As to `CCc1sc(N)nc1C(=O)OCP(=O)(O)O` [Compound 18.3, 2-amino-5-ethyl-4-phosphonomethoxycarbonylthiazole], the inhibition in vivo at 10 mg/kg in the data set with Fasted Rats (setting [5]) was found to be 75%.
As to `Nc1nc(-c2ccc(P(=O)(O)O)o2)c(-c2cccs2)s1` [Compound 6.3], the inhibition in vivo at 10 mg/kg in the data set on Fasted Rats (setting [5]) came out at 24%.
As to `Nc1ccc(C2CC2)c(-c2ccc(P(=O)(O)O)o2)n1` [Compound 15.20, 2-Amino-5-cyclopropyl-6-[2-(5-phosphono)furanyl]pyridine], in the data set on Fasted Rats (setting [5]), the inhibition in vivo at 10 mg/kg came out at 24%. Further, in data set [1], the concentration at 1 h came out at 66.3 ± 3.9 µM and the “Liver Conc.” value was determined as 13.1 ± 2.3 nmol/g.
As for `Cc1ccc(OCP(=O)(O)O)c2nc(N)sc12` [Compound 35.3, 2-Amino-4-phosphonomethoxy-7-methylbenzothiazole], in the data set on Fasted Rats (setting [5]), at 10 mg/kg the inhibition in vivo was 65%.
With `Cc1nc(-c2ccc(P(=O)(O)O)o2)c(CC(C)C)s1` [Compound 3.2, 2-Methyl-5-isobutyl4-[2-(5-phosphono)furanyl]thiazole], in the data set with Fasted Rats (Rattus norvegicus, iv, 30 mg/kg i.v.), testing at 30 mg/kg gave an inhibition in vivo of 55%.
In the case of `CC(C)Cc1sc(N)nc1-c1ccc(P2(=O)OCCC(c3cccc(Cl)c3)O2)o1` (stereo not drawn) [Compound 19.46, 2-Amino-5-isobutyl-4-{2-[5-(1-(3-chlorophenyl)-1,3-propyl)phosphono]furanyl}thiazole], the “% Glucose Lowering (maximum)” value with Fasted Rat (dose 30 mg/kg, time point 2 h) stood at 53%.
For the compound `CCOC(=O)OCOP(=O)(OCOC(=O)OCC)c1ccc(-c2nc(N)sc2CC(C)C)o1` [Compound 20.9, 2-Amino-5-isobutyl-4-{-2-[5-bis(ethoxycarbonyloxymethyl)phosphono]-furanyl}thiazole], in data set [2], the “% Oral bioavailability” value is 17.4%. The IC50 in data set [3] came out at 2.2 µM. The “% Glucose Lowering (maximum)” value with Fasted Rat (dose 90 mg/kg, time point 3 h) was 67%.
`Cc1nc(-c2ccc(P(=O)(OCOC(=O)C(C)(C)C)OCOC(=O)C(C)(C)C)o2)cs1` [Compound 20.1, 2-methyl-4-[2-(5-dipivaloyloxymethylphosphono)furanyl]-thiazole]: the “% Oral bioavailability” value in data set [2] is listed as 46%.
Take `COC(=O)C(C)NP(=O)(Oc1ccccc1)c1ccc(-c2nc(N)sc2CC(C)C)o1` (stereo not drawn) [Compound 31.6, 2-amino-5-isobutyl-4-{2-[5-(O-phenyl-N-(1-methoxycarbonyl)ethyl)phosphonamido]furanyl}thiazole]: the “% Oral bioavailability” value in data set [2] was 19%. Further, in data set [3], the IC50 amounted to 2.3 µM. In addition, in the data set on Fasted Rat (dose 10 mg/kg, time point 3 h), the “% Glucose Lowering (maximum)” value is reported as 60%.
Turning to `Nc1nc(-c2ccc(P(=O)(O)O)o2)c(C2CC2)s1` [Compound 3.27, 2-Amino-5-cyclopropyl-4-[2-(5-phosphono)furanyl]thiazole], the “% Oral bioavailability” value in data set [2] is 32%. Besides, the “% Glucose Lowering (maximum)” value in the data set on Fasted Rat (dose 60 mg/kg, time point 3 h) amounted to 61%.
Take `CSc1[se]c(N)nc1-c1ccc(P(=O)(O)O)o1` [Compound 3.71, 2-Amino-5-methylthio-4-[2-(5-phosphono)furanyl]selenazole]: the “i.v. Glucose Lowering, %” value in the data set on Fasted Rats (10 mg/kg i.v.) was found to be 72%.
Regarding `CCCc1oc(N)nc1-c1ccc(P(=O)(O)O)o1` [Compound 10.2, 2-Amino-5-propyl-4-[2-(5-phosphono)furanyl]oxazole], the bioavailability in data set [2] (Sprague-Dawley, rat, urine) is 22%. Further, in data set [1], the concentration at 1 h worked out at 22 ± 1.5 µM. Also, the “% Glucose Lowering (maximum)” value in the data set with Fasted Rat (dose 90 mg/kg, time point 3 h) turned out to be 36%.

These data come from US7312219B2, “Heteroaromatic inhibitors of fructose 1,6-bisphosphatase” (Metabasis Therapeutics, Inc., priority 1998, dated 2007).
